Assay results: US20260014153A1, “ELACESTRANT IN COMBINATION WITH ABEMACICLIB IN WOMEN WITH BREAST CANCER” (RADIUS PHARMACEUTICALS, INC., priority 2018, published 2026)

What was measured:
[1] = system: tumors expressing wild-type ERα; assay: growth of tumors expressing wild-type ERα; assay type: in vivo
[2] = system: tumors expressing Y537S ERα; assay: growth of tumors expressing mutant ERα; assay type: in vivo
breast cancer tumor = assay: animal xenograft model of breast cancer; conditions: in vivo
[3] = system: brain metastasis xenograft; assay: brain metastasis xenograft model; conditions: in vivo
[4] = bone loss in ovariectomized rats; assay type: in vivo
uterine tissues = assay: estradiol stimulation of uterine tissues in ovariectomized rats; assay type: in vivo
[5] = standardized uptake value in tissues not significantly expressing ER; assay type: in vivo, human; conditions: 200 mg or up to 500 mg q.d.; uterus, muscle, bone tissues not significantly expressing ER
[6] = half life after PO dosing; assay type: in vivo; conditions: humans
[7] = molecular target: T1, ER in the uterus and pituitary (Homo sapiens, UniProt P03372); assay: estradiol binding to ER by FES-PET imaging; assay type: in vivo; conditions: uterine and pituitary tissue
T1 construct: from tissue; host or cells: uterus and pituitary, in vivo
T1 sequence (P03372 1-595): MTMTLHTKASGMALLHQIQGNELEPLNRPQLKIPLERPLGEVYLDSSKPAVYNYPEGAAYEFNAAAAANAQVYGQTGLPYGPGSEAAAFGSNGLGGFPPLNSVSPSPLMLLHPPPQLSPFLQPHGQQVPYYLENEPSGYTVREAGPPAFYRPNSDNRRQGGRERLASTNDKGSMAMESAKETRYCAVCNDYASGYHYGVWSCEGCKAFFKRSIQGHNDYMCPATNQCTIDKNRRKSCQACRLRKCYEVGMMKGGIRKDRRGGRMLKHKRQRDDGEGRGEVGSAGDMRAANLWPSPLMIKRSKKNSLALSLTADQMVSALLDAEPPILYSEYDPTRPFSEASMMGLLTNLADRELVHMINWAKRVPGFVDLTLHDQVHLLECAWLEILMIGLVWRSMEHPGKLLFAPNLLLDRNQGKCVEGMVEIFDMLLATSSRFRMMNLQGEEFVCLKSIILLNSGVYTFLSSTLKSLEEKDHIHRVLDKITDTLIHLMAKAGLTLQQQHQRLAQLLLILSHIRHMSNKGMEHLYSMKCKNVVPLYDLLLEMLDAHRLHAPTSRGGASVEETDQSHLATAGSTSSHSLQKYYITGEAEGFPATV
Method: In these experiments, estradiol binding to ER in uterine and pituitary tissue was evaluated by FES-PET imaging.

[8] = system: ER+ breast cancer with both wild-type and mutant ESR1; conditions: models of ER+ breast cancer, single agent and in combination with a CDK4/6 inhibitor; cited from earlier work
ER+ breast cancer = conditions: monotherapy; models including fulvestrant-insensitive, estrogen-independent and/or ESR1-mutant; cited from earlier work
ERα = molecular target: T2, ERα (Homo sapiens, UniProt P03372); conditions: cited from earlier work
T2 sequence (P03372 1-595): T1 sequence (P03372 1-595)

accumulation within tumor cells (breast cancer tumor): significant accumulation | change in standardized uptake value (SUV) pre- and post-treatment [5]: hardly any changes | half life [6]: surprisingly long half life | observed level of ER binding after treatment [7]: at or below background levels
Structure (SMILES): CCNCCc1ccc(CN(CC)c2cc(OC)ccc2[C@@H]2CCc3cc(O)ccc3C2)cc1 [RAD1901]
inhibition of tumor growth [1]: inhibit tumor growth | inhibition of tumor growth [2]: unexpected ability to inhibit the growth of tumors | breast cancer tumor growth (breast cancer tumor): inhibiting breast cancer tumor growth | blood-brain barrier penetration [3]: capable of penetrating the blood-brain barrier | survival [3]: significantly prolonged survival | bone loss [4]: protects against bone loss | estradiol stimulation of uterine tissues (uterine tissues): antagonized estradiol stimulation | inhibition of tumor growth [8]: effective in inhibiting tumor growth | antitumor activity (ER+ breast cancer): demonstrated antitumor activity | binding preference ERα versus ERβ (ERα): preferentially bind ERα
